Patent US10947285B2, “Compounds, compositions and uses thereof for improvement of bone disorders” (Amolyt Pharma, priority 2017, dated 2021)
One block for each compound: values may come before it. Residues, ends and D or L forms follow the SMILES beside them. No end group written: not given here. *: point of attachment. Stearoyl = CCCCCCCCCCCCCCCCCC(=O)*

Columns and labels:
[1] = Stability of HBD1 fragments in human plasma; format: in vitro ADME; conditions: 24 and 48 hours incubation at 37° C.
Protocol: The peptides were spiked at 1 μg/mL (peptide backbone) into pre-warmed human K2EDTA plasma (at 37° C.) and incubated for up to 48 hours. Aliquots of plasma were extracted at specific time points (0, 24 and 48 hours post spike). Extraction was performed with acetonitrile:water (75:25, v/v) for HBD1 (1-13), HBD1 (1-13) with palmitic acid at the N-terminus (C16:0), HBD1 (3-11) with palmitic acid at the N-terminus (C16:0)) and HBD1 (3-11) with stearic acid at the N-terminus (C18:0) or with acetonitrile:water:formic acid (75:25:0.1, v/v/v) for HBD1 (3-11) and cyclic HBD1 (3-11). The peptides were analyzed using developed LC (C18 reverse phase column)—positive ion electrospray MS/MS methods specific to each peptide. The peak area at each time point was expressed as a percentage of the value obtained for the t=0 minutes time point.

[2] = Pharmacokinetic of HBD1 fragments in male Sprague Dawley rats after intravenous and subcutaneous injection; format: in vivo; conditions: 1 μmol net peptide/kg; for quantifiable exposure after administration by either dose route: iv and sc
Protocol: The peptides were reconstituted in saline (0.9% NaCl). Three male Sprague Dawley rats were used per group. Intravenous doses were administered into a lateral tail vein at the dose of 1 μmol net peptide/kg. Subcutaneous doses were administered into the right flank of each animal, also at the dose of 1 μmol net peptide/kg. Following dosing, serial whole blood samples (ca. 0.25 mL) were collected from a lateral tail vein into K2EDTA treated containers. Following each blood sample collection, samples were placed into a cooling block at 4° C. Samples were collected prior to dosing then at 2, 5, 15 and 30 minutes then 1, 2, 4, 6 and 8 and 24 hours post dose for intravenous injection and at 15 and 30 minutes then 1, 2, 4, 6, 8 and 24 hours post dose for subcutaneous injection.
Blood samples were centrifuged at 10000×g for 2 minutes at 4° C. and resultant plasma aspirated off into clean fully, labelled tubes. Plasma samples were snap frozen following aspiration then stored at −80° C. Peptides were extracted and analyzed as described in Example 9. The limits of quantification of these methods were 0.001 nmol/mL for cyclic HBD1 (3-11) and HBD1 (3-11) and 0.003 nmol/mL for HBD1 (1-13). All values below these limits of quantification were considered as zero.

[3] = Pharmacokinetic in Göttingen minipigs after intravenous and subcutaneous injection; format: in vivo; conditions: 0.5 μmol/kg
Protocol: The peptide was reconstituted in saline (0.9% NaCl). Three Göttingen minipigs (approximately 8-10 months of age) were used per group. Intravenous doses were administered into an ear vein at the dose of 0.5 μmol net peptide/kg. Subcutaneous doses were administered into the right flank of each animal, also at the dose of 0.5 μmol net peptide/kg. Following dosing, serial whole blood samples (ca. 0.25 mL) were collected from a jugular vein into K2EDTA treated containers. Following each blood sample collection, samples were placed into a cooling block at 4° C. Samples were collected prior to dosing then at 5 and 30 minutes then 1, 2, 4, 8, 25, 48, 72 and 96 hours post dose for intravenous injection and at 15 and 30 minutes then 1, 2, 4, 8, 25, 48, 72 and 96 hours post dose for subcutaneous injection.
Blood samples were centrifuged at 10000×g for 2 minutes at 4° C. and resultant plasma aspirated off into clean fully, labelled tubes. Plasma samples were snap frozen following aspiration then stored at −80° C. Peptide extraction and analysis were performed as described in Example 9. The limit of quantification of this method is 0.0015 nmol/mL. All values below this limit of quantification are considered as zero.

[4] = system: ovariectomized (OVX) rats; test: Bone formation in ovariectomized rat, μCT of proximal tibia; format: in vivo, Sprague-Dawley rats; conditions: 6 weeks
Protocol: (§1) Effects on bone of three doses of HBD1 (3-11) with stearic acid at the N-terminus (C18:0) analog were tested in vivo in ovariectomized (OVX) rats, a recognized model for human osteoporosis, in particular postmenopausal osteoporosis. Each group included ten female Sprague-Dawley rats that were four months of age at the beginning of the in-life phase of the study. Treatment started six weeks after OVX surgery and lasted for six additional weeks. Groups were randomized before surgery according to body weight and tibial metaphysis Bone Mineral Density (BMD) as measured by peripheral quantitative computed tomography (pQCT) from Norland Stratec XCT Research SA equipment (Norland Stratec Medizintechnik, Birkenfeld, Germany).
(§2) The peptide was reconstituted in saline solution (0.9% NaCl) and administered subcutaneously twice a day at the doses of 0.8 mg/kg (low), 1.6 mg/kg (med) or 3.2 mg/kg (high) in a volume of 1 mL/kg. The control group was administered twice a day with saline by s.c. administration. Rats were weighed once a week and the volume of dosing solution administered was adjusted accordingly.
High-resolution micro-computed tomography (μCT) measurements using Sky Scan 1072 or 1172 High Resolution Scanner (Bruker microCT, Kontich, Belgium) were performed ex vivo in right proximal tibia at the end of the treatment period for measuring bone volume, bone cross-sectional dimensions and bone microarchitecture. FIGS. 5A, 5B and 5C show the percent increase from OVX animals HBD1 (3-11) with stearic acid at the N-terminus (C18:0) groups for following selected parameters: Bone Volume Fraction (BV/TV; %), Trabecular number (Tb.N; mm^−1) and Connectivity Density (Conn.D; mm^−3).

[5] = system: ovariectomized (OVX) rats; test: Bone biomechanical properties in ovariectomized rat (lumbar vertebrae compression, femoral neck cantilever bending); format: in vivo, Sprague-Dawley rats; conditions: 3.2 mg/kg BID s.c., 6 weeks, vs OVX vehicle
Protocol: as §1, §2
Bone biomechanical properties were determined by compression test using Instron 3343 biomechanical testing system (Instron, Norwood, Mass., USA). […]

[6] = OVX rats, s.c. twice a day 0.8, 1.6 or 3.2 mg/kg, vs OVX vehicle, dose-dependent

- stability in human plasma (in words) [1]: markedly degraded in human plasma
- quantifiable exposure after administration by either dose route [2]: no quantifiable exposure
Compound: KHHLGLEEPKKLR [SEQ ID NO: 1, KHHLGLEEPKKLR, reference compound]

- Tlast (last time point with detectable peptide) ([2]; iv, listed as Cyclic HBD1 (3-11)): 8 h
- Tlast (last time point with detectable peptide) ([2]; sc, listed as Cyclic HBD1 (3-11)): 4 h
- Tlast (last time point with detectable peptide) ([2]; sc, listed as cyclic HBD1 (3-11)): ≤ 4 h
Compound: CC(C)C[C@@H]1NC(=O)CNC(=O)[C@H](CC(C)C)NC(=O)[C@H](Cc2c[nH]cn2)NC(=O)[C@H](CCCCN)NC(=O)[C@H](CCCCN)NC(=O)[C@@H]2CCCN2C(=O)[C@H](CCC(=O)O)NC(=O)[C@H](CCC(=O)O)NC1=O [SEQ ID NO: 77, Cyclic (HLGLEEPKK)] (cyclo(EEPKKHLGL))

- duration of exposure after subcutaneous administration [3]: up to 25 hours
Compound: CCCCCCCCCCCCCCCCCC(=O)N[C@@H](Cc1c[nH]cn1)C(=O)N[C@@H](CC(C)C)C(=O)NCC(=O)N[C@@H](CC(C)C)C(=O)N[C@@H](CCC(=O)O)C(=O)N[C@@H](CCC(=O)O)C(=O)N1CCC[C@H]1C(=O)N[C@@H](CCCCN)C(=O)N[C@@H](CCCCN)C(=O)O [SEQ ID NO: 73, C18:0-HLGLEEPKK] (Stearoyl-HLGLEEPKK-OH; C-terminus assumed)
- effect on bone in ovariectomized rat ([4]; OVX Sprague-Dawley rats, s.c. twice a day, 0.8, 1.6 or 3.2 mg/kg): has anabolic effect on bone
- connectivity density (Conn.D) at tibial metaphysis [4, 6]: increased
- percent bone volume fraction (BV/TV) at tibial metaphysis [4, 6]: increased
- trabecular number (Tb.N) at tibial metaphysis [4, 6]: increased
- bone strength (biomechanical properties of lumbar vertebrae and femoral neck) [5]: increased bone strength

- stability in human plasma (in words) [1]: very stable in human plasma
- quantifiable exposure after administration by either dose route [2]: no quantifiable exposure
Compound: HLGLEEPKK [SEQ ID NO: 10, HLGLEEPKK]
